This note sets out measurements from PubChem BioAssay AID190 (DTP/NCI, 2004).

This test concerns AKR/Lw mice, AKR lymphoma ip, median survival T/C. Put plainly: NCI In Vivo Anticancer Drug Screen. Data for tumor model Lymphoma AKR (Transplanted) (intraperitoneal) in AKR/Lw mice. As to conditions: endpoint: median survival time, higher = longer survival. Here is the method: The antitumor activity of compounds was measured in mice bearing transplantable tumors. Survival or tumor size were measured and the results are expressed as the measurement made in the treated group (T) divided by the measurement made in the vehicle treated control group (C). The tumor model used in this assay is Lymphoma AKR (Transplanted) (intraperitoneal) in AKR/Lw mice

Setting [1] is: dose: 12.5 mg/kg/injection, schedule: Q01DX009 (ip), vehicle: saline.
Where [2] appears, read: dose: 100.0 mg/kg/injection, schedule: Q01DX001 (ip), vehicle: Klucel (hydroxypropylcellulose) (HPC).
The mark [3] stands for this setting: dose: 100.0 mg/kg/injection, schedule: Q01DX001 (ip), vehicle: saline.
Setting [4] is: dose: 100.0 mg/kg/injection, schedule: Q04DX003 (ip), vehicle: Klucel (hydroxypropylcellulose) (HPC).
Setting [5] is: dose: 200.0 mg/kg/injection, schedule: Q01DX001 (ip), vehicle: Klucel (hydroxypropylcellulose) (HPC).
[6] abbreviates: dose: 200.0 mg/kg/injection, schedule: Q01DX001 (ip), vehicle: saline.
[7] abbreviates: dose: 200.0 mg/kg/injection, schedule: Q04DX003 (ip), vehicle: Klucel (hydroxypropylcellulose) (HPC).
The mark [8] stands for this setting: dose: 600.0 mg/kg/injection, schedule: Q01DX001 (ip), vehicle: Klucel (hydroxypropylcellulose) (HPC).
[9] abbreviates: dose: 400.0 mg/kg/injection, schedule: Q01DX001 (ip), vehicle: Klucel (hydroxypropylcellulose) (HPC).

“And” between values parts separate entries of the source, which are not always exact repeats. Equal values may be shown once. Inconclusive results and toxic doses are left out.

As for `CN(C)/N=N/c1nc[nH]c1C(N)=O`, the T/C reads like this: under setting [1], 120 % of control; (dose: 25.0 mg/kg/injection, schedule: Q01DX009 (ip), vehicle: saline with Tween-80) 111 % of control; (dose: 25.0 mg/kg/injection, schedule: Q01DX009 (ip), vehicle: saline) 106 % of control and 123 % of control; (dose: 25.0 mg/kg/injection, schedule: Q04DX003 (ip), vehicle: Klucel (hydroxypropylcellulose) (HPC)) 102 % of control; (dose: 37.5 mg/kg/injection, schedule: Q04DX003 (ip), vehicle: Klucel (hydroxypropylcellulose) (HPC)) 116 % of control; (dose: 50.0 mg/kg/injection, schedule: Q01DX001 (ip), vehicle: Klucel (hydroxypropylcellulose) (HPC)) 102 % of control. In addition, the T/C (dose: 50.0 mg/kg/injection, schedule: Q01DX005 (ip), vehicle: water) is 116 % of control; the T/C (dose: 50.0 mg/kg/injection, schedule: Q01DX009 (ip), vehicle: saline with Tween-80) is 111 % of control; the T/C (dose: 50.0 mg/kg/injection, schedule: Q04DX003 (ip), vehicle: Klucel (hydroxypropylcellulose) (HPC)) was 105 % of control; the T/C (dose: 75.0 mg/kg/injection, schedule: Q04DX003 (ip), vehicle: Klucel (hydroxypropylcellulose) (HPC)) is 102 % of control; the T/C (dose: 90.0 mg/kg/injection, schedule: Q01DX005 (ip), vehicle: Klucel (hydroxypropylcellulose) (HPC)) was 158 % of control; the T/C under setting [2] is 90 % of control and 113 % of control. In addition, the T/C runs as follows: under setting [3], 105 % of control and 107 % of control; (dose: 100.0 mg/kg/injection, schedule: Q01DX005 (ip), vehicle: water) 120 % of control; (dose: 100.0 mg/kg/injection, schedule: Q01DX009 (ip), vehicle: Klucel (hydroxypropylcellulose) (HPC)) 100 % of control and 123 % of control; (dose: 100.0 mg/kg/injection, schedule: Q01DX009 (ip), vehicle: saline with Tween-80) 111 % of control; under setting [4], 87 % of control; (dose: 135.0 mg/kg/injection, schedule: Q01DX005 (ip), vehicle: Klucel (hydroxypropylcellulose) (HPC)) 186 % of control and 188 % of control. The T/C reads like this: (dose: 150.0 mg/kg/injection, schedule: Q01DX009 (ip), vehicle: saline) 111 % of control; under setting [5], 123 % of control; under setting [6], 107 % of control (2×) and 113 % of control; (dose: 200.0 mg/kg/injection, schedule: Q01DX005 (ip), vehicle: Klucel (hydroxypropylcellulose) (HPC)) 97 % of control; (dose: 200.0 mg/kg/injection, schedule: Q01DX005 (ip), vehicle: water) 114 % of control; (dose: 200.0 mg/kg/injection, schedule: Q01DX009 (ip), vehicle: Klucel (hydroxypropylcellulose) (HPC)) 100 % of control and 123 % of control. Further, the T/C reads like this: (dose: 200.0 mg/kg/injection, schedule: Q01DX009 (ip), vehicle: saline with Tween-80) 117 % of control; under setting [7], 100 % of control and 121 % of control and 122 % of control; (dose: 250.0 mg/kg/injection, schedule: Q04DX003 (ip), vehicle: Klucel (hydroxypropylcellulose) (HPC)) 111 % of control; (dose: 300.0 mg/kg/injection, schedule: Q01DX001 (ip), vehicle: Klucel (hydroxypropylcellulose) (HPC)) 120 % of control and 123 % of control; (dose: 350.0 mg/kg/injection, schedule: Q04DX003 (ip), vehicle: Klucel (hydroxypropylcellulose) (HPC)) 163 % of control; (dose: 500.0 mg/kg/injection, schedule: Q01DX001 (ip), vehicle: Klucel (hydroxypropylcellulose) (HPC)) 107 % of control and 111 % of control. Moreover, the T/C is 110 % of control and 111 % of control under setting [8]; 102 % of control (dose: 600.0 mg/kg/injection, schedule: Q01DX009 (ip), vehicle: Klucel (hydroxypropylcellulose) (HPC)).
As for `N=Cc1c(O)[nH]c(=O)[nH]c1=O`, the T/C reads like this: under setting [3], 105 % of control; under setting [4], 100 % of control; under setting [6], 119 % of control; under setting [7], 93 % of control; (dose: 400.0 mg/kg/injection, schedule: Q01DX001 (ip), vehicle: saline) 88 % of control.
`CCCCC(C(=O)OCC)C(CCC1CCCCC1)(C(=O)OCC)C(=O)OCC` (centres undefined): the T/C is, setting by setting: under setting [2], 110 % of control; under setting [5], 104 % of control.
With `CCCn1c(=S)[nH]c2ccccc2c1=O`, the T/C is 103 % of control under setting [2], 94 % of control under setting [5] and 100 % of control under setting [9].
Turning to `Nc1nc(=S)c2ncn(C3CC(O)C(CO)O3)c2[nH]1` (centres undefined), the T/C under setting [1] is 93 % of control; the T/C (dose: 25.0 mg/kg/injection, schedule: Q04DX003 (ip), vehicle: saline) was 108 % of control; the T/C (dose: 50.0 mg/kg/injection, schedule: Q04DX003 (ip), vehicle: saline) is 102 % of control and 119 % of control; the T/C under setting [3] is 100 % of control; the T/C (dose: 100.0 mg/kg/injection, schedule: Q04DX003 (ip), vehicle: other) is 98 % of control and 123 % of control; the T/C under setting [6] is 102 % of control. The T/C (dose: 200.0 mg/kg/injection, schedule: Q01DX009 (ip), vehicle: saline) is 86 % of control and 105 % of control and 116 % of control; the T/C (dose: 200.0 mg/kg/injection, schedule: Q04DX003 (ip), vehicle: saline) is 108 % of control and 112 % of control and 116 % of control; the T/C (dose: 300.0 mg/kg/injection, schedule: Q04DX003 (ip), vehicle: saline) was 119 % of control; the T/C (dose: 400.0 mg/kg/injection, schedule: Q01DX009 (ip), vehicle: saline) is 103 % of control and 110 % of control; the T/C (dose: 400.0 mg/kg/injection, schedule: Q04DX003 (ip), vehicle: other) was 113 % of control; the T/C (dose: 400.0 mg/kg/injection, schedule: Q04DX003 (ip), vehicle: saline) is 116 % of control and 122 % of control. In addition, the T/C is, setting by setting: (dose: 500.0 mg/kg/injection, schedule: Q01DX001 (ip), vehicle: saline) 105 % of control and 107 % of control and 121 % of control; (dose: 500.0 mg/kg/injection, schedule: Q04DX003 (ip), vehicle: saline) 103 % of control; (dose: 600.0 mg/kg/injection, schedule: Q01DX001 (ip), vehicle: saline) 102 % of control and 111 % of control and 119 % of control; (dose: 600.0 mg/kg/injection, schedule: Q04DX003 (ip), vehicle: saline) 93 % of control and 100 % of control.
In the case of `CC(=O)c1cccc(N)c1`, the T/C reads like this: under setting [2], 93 % of control and 105 % of control; under setting [5], 91 % of control; under setting [9], 94 % of control and 122 % of control; under setting [8], 94 % of control.
Take `O=NN(CCCl)C(=O)NC1CCCCC1`: the T/C reads like this: (dose: 2.0 mg/kg/injection, schedule: Q04DX003 (ip), vehicle: Klucel (hydroxypropylcellulose) (HPC)) 102 % of control; (dose: 2.5 mg/kg/injection, schedule: Q01DX001 (ip), vehicle: Klucel (hydroxypropylcellulose) (HPC)) 109 % of control; (dose: 4.4 mg/kg/injection, schedule: Q04DX003 (ip), vehicle: Klucel (hydroxypropylcellulose) (HPC)) 106 % of control; (dose: 5.0 mg/kg/injection, schedule: Q01DX001 (ip), vehicle: Klucel (hydroxypropylcellulose) (HPC)) 111 % of control; (dose: 5.0 mg/kg/injection, schedule: Q04DX004 (ip), vehicle: Klucel (hydroxypropylcellulose) (HPC)) 100 % of control; (dose: 6.25 mg/kg/injection, schedule: Q07DX003 (ip), vehicle: saline) 109 % of control. The T/C reads like this: (dose: 6.7 mg/kg/injection, schedule: Q04DX003 (ip), vehicle: Klucel (hydroxypropylcellulose) (HPC)) 122 % of control; (dose: 7.0 mg/kg/injection, schedule: Q01DX001 (ip), vehicle: Klucel (hydroxypropylcellulose) (HPC)) 165 % of control; (dose: 10.0 mg/kg/injection, schedule: Q04DX003 (ip), vehicle: Klucel (hydroxypropylcellulose) (HPC)) 115 % of control; (dose: 10.0 mg/kg/injection, schedule: Q04DX004 (ip), vehicle: Klucel (hydroxypropylcellulose) (HPC)) 100 % of control; (dose: 12.5 mg/kg/injection, schedule: Q07DX003 (ip), vehicle: saline) 96 % of control and 115 % of control and 118 % of control; (dose: 25.0 mg/kg/injection, schedule: Q01DX001 (ip), vehicle: saline with Tween-80) 159 % of control. Moreover, the T/C is 106 % of control and 115 % of control (dose: 25.0 mg/kg/injection, schedule: Q01DX001 (ip), vehicle: saline); 106 % of control and 109 % of control (dose: 25.0 mg/kg/injection, schedule: Q07DX003 (ip), vehicle: saline); 365 % of control (dose: 50.0 mg/kg/injection, schedule: Q01DX001 (ip), vehicle: saline with Tween-80); 115 % of control (dose: 50.0 mg/kg/injection, schedule: Q01DX001 (ip), vehicle: saline); 218 % of control (dose: 100.0 mg/kg/injection, schedule: Q01DX001 (ip), vehicle: saline with Tween-80).
